For 15 compounds, DC50 results are on record in US12606552B2, “Bifunctional compound, preparation method therefor, and use thereof” (SUZHOU KINTOR PHARMACEUTICALS, INC., priority 2020, dated 2026).

This assay addresses T1, AR (Homo sapiens, UniProt P10275, T878A).
T1 sequence (P10275 1-920 T878A): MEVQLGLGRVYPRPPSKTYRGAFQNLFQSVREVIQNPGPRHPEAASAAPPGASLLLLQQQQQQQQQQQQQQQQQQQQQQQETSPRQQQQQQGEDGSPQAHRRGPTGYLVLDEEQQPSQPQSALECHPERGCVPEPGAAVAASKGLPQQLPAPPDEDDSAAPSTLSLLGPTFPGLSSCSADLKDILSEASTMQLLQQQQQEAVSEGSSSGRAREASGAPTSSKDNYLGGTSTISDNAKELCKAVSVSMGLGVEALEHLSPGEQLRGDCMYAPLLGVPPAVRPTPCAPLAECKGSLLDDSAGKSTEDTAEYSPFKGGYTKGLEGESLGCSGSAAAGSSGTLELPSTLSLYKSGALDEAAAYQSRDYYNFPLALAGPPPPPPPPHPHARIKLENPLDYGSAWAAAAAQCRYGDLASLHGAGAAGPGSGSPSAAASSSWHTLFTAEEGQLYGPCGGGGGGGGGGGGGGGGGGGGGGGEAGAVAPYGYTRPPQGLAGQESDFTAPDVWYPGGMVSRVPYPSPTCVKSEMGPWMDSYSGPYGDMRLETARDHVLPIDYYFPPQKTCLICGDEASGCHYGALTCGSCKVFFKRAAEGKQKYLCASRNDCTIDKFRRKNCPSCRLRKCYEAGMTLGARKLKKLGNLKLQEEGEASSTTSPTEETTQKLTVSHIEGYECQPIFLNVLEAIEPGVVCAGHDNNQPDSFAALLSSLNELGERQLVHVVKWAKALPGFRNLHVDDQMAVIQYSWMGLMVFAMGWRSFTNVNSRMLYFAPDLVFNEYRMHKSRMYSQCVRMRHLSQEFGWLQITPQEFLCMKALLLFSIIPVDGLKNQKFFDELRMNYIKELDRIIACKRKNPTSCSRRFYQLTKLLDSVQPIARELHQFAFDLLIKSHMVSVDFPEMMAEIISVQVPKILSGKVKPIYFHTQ
As to the kind of experiment: Effects of compounds on AR expression in LNCaP cells (ELISA, DC50). Type of assay: cell-based. Also noted: Measurement of the Effects of Drugs on the Expression of AR in Cells by ELISA Method; endogenous in cells; host or cells: LNCaP. As to conditions: 24 hours of drug treatment, AR by ELISA. Summed up:
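LNCaP cells at about 15,000/well were treated for 24 h with compound at 0.0001–2 μmol/L final. AR in cell lysates was measured by ELISA (OD450). Inhibition was relative to DMSO control after blank subtraction, and DC50 was calculated from it.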
(ELISA stands for enzyme-linked immunosorbent assay.)

Each structure is given as a SMILES string.

In the case of `Cc1ncoc1-c1c[nH]c([C@@H]2C[C@@H](O)CN2C(=O)[C@@H](NC(=O)COCCCCOc2ccc(-c3ccc(N4C(=S)N(c5ccc(C#N)c(C(F)(F)F)c5F)C(=O)C4(C)C)cn3)cc2)C(C)(C)C)n1` [Compound A225], the DC50 is 92.1 nM. For the compound `Cc1ncoc1-c1c[nH]c([C@@H]2C[C@@H](O)CN2C(=O)[C@@H](NC(=O)COCCCCOc2ccc(-c3ncc(N4C(=S)N(c5ccc(C#N)c(C(F)(F)F)c5F)C(=O)C4(C)C)cc3F)c(C(F)(F)F)c2)C(C)(C)C)n1` [Compound A224], the DC50 was found to be 75.7 nM. With `CC1(C)C(=O)N(c2ccc(C#N)c(C(F)(F)F)c2F)C(=S)N1c1cnc(-c2ccc(OCCNC(=O)COc3cccc4c3C(=O)N(C3CCC(=O)NC3=O)C4=O)c(F)c2)c(F)c1` (stereo not drawn) [Compound A39] the figure was 19.4 nM; with `Cc1ncsc1-c1ccc(CNC(=O)[C@@H]2C[C@@H](O)CN2C(=O)[C@@H](NC(=O)COCCCCNc2ccc(-c3ccc(N4C(=S)N(c5ccc(C#N)c(C(F)(F)F)c5F)C(=O)C4(C)C)cn3)cc2)C(C)(C)C)cc1` [Compound A68], more than 2000 nM. With `CC(C)(C)[C@H](NC(=O)COCCCCOc1ccc(-c2ccc(N3C(=S)N(c4ccc(C#N)c(C(F)(F)F)c4F)C(=O)C3(C)C)cn2)cc1C(F)(F)F)C(=O)N1C[C@H](O)C[C@H]1C(=O)NCc1ccccc1` [Compound A122] the figure was 155 nM; with `Cc1ncsc1-c1cn(C)c([C@@H]2C[C@@H](O)CN2C(=O)[C@@H](NC(=O)COCCCCOc2ccc(-c3ncc(N4C(=S)N(c5ccc(C#N)c(C(F)(F)F)c5F)C(=O)C4(C)C)cc3F)c(C(F)(F)F)c2)C(C)(C)C)n1` [Compound A221], 144 nM; with `CC1(C)C(=O)N(c2ccc(C#N)c(C(F)(F)F)c2F)C(=S)N1c1ccc(-c2ccc(C(=O)NCCNC(=O)COc3cccc4c3C(=O)N(C3CCC(=O)NC3=O)C4=O)cc2)nc1` (stereo not drawn) [Compound A34], 835 nM.

`CC1(C)C(=O)N(c2ccc(C#N)c(C(F)(F)F)c2F)C(=S)N1c1ccc(-c2ccc(C(=O)N3CCN(C(=O)COc4cccc5c4C(=O)N(C4CCC(=O)NC4=O)C5=O)CC3)cc2)nc1` (stereo not drawn) [Compound A45] had a DC50 of more than 2000 nM. For `CC(C)(C)[C@H](NC(=O)COCCOc1ccc(-c2ncc(N3C(=S)N(c4ccc(C#N)c(C(F)(F)F)c4F)C(=O)C3(C)C)cc2F)cc1F)C(=O)N1C[C@H](O)C[C@H]1C(=O)NCc1ccccc1` [Compound A130], the DC50 was determined as 131 nM. Consider `CC(C)(C)[C@H](NC(=O)COCCCCOc1ccc(-c2ccc(N3C(=S)N(c4ccc(C#N)c(C(F)(F)F)c4F)C(=O)C3(C)C)cn2)cc1)C(=O)N1C[C@H](O)C[C@H]1c1nc(-c2cccs2)c[nH]1` [Compound A209], for which the DC50 was 856 nM. The figure for `Cc1ncsc1-c1ccc(CNC(=O)[C@@H]2C[C@@H](O)CN2C(=O)[C@@H](NC(=O)CCN2CCC(NC(=O)c3ccc(-c4ccc(N5C(=S)N(c6ccc(C#N)c(C(F)(F)F)c6F)C(=O)C5(C)C)cn4)cc3)C2)C(C)(C)C)cc1` (stereo partly drawn) [Compound A56] is 704 nM; for `CC(=O)O[C@@H]1C[C@@H](C(=O)NCc2ccc(-c3scnc3C)cc2)N(C(=O)[C@@H](NC(=O)COCCCCOc2ccc(-c3ncc(N4C(=S)N(c5ccc(C#N)c(C(F)(F)F)c5F)C(=O)C4(C)C)cc3F)c(C(F)(F)F)c2)C(C)(C)C)C1` [Compound A146] it is 259 nM. With `COc1c(C#N)ccc(N2C(=O)C(C)(C)N(c3cnc(-c4ccc(OC5CCN(C(=O)COc6ccc7c(c6)C(=O)N(C6CCC(=O)NC6=O)C7=O)CC5)cc4F)c(F)c3)C2=S)c1F` (stereo not drawn) [Compound A194] the figure was 246 nM; with `Cc1ncsc1-c1ccc(CNC(=O)[C@@H]2C[C@@H](O)CN2C(=O)[C@@H](NC(=O)CN2CCN(Cc3ccc(-c4ccc(N5C(=S)N(c6ccc(C#N)c(C(F)(F)F)c6F)C(=O)C5(C)C)cn4)cc3)CC2)C(C)(C)C)cc1` [Compound A86], 69.3 nM. The figure for `Cc1ncsc1-c1ccc(CNC(=O)[C@@H]2C[C@@H](O)CN2C(=O)[C@@H](NC(=O)COCC(F)C(F)COc2ccc(-c3ncc(N4C(=S)N(c5ccc(C#N)c(C(F)(F)F)c5F)C(=O)C4(C)C)cc3F)cc2F)C(C)(C)C)cc1` (stereo partly drawn) [Compound A150] is 90.6 nM.
